The source of these data is ChEMBL document CHEMBL4152244, “Discovery of new erbB4 inhibitors: Repositioning an orphan chemical library by inverse virtual screening” (Eur J Med Chem, 2018).

As a reminder, the inhibition is the drop in the measured response relative to a control, in per cent. For orientation: IC50 means the concentration at which inhibition is half-maximal.

Calls of active or inactive are those of the source. The rule behind the calls is not given here.

Test [1] addresses T1, Receptor tyrosine-protein kinase erbB-4 (Homo sapiens, UniProt Q15303). Nature of the test: Inhibition of recombinant human N-terminal GST-His6-fused erbB4 expressed in Sf9 insect cells at 10 uM using poly (Glu, Tyr) 4:1 as substrate after 60 mins in presence of [gamma-33P]-ATP by microplate scintillation counting method relative to control.
Test [2] has as its target T2, Ephrin type-A receptor 3 (Homo sapiens) (UniProt P29320).
T2 sequence (whole entry): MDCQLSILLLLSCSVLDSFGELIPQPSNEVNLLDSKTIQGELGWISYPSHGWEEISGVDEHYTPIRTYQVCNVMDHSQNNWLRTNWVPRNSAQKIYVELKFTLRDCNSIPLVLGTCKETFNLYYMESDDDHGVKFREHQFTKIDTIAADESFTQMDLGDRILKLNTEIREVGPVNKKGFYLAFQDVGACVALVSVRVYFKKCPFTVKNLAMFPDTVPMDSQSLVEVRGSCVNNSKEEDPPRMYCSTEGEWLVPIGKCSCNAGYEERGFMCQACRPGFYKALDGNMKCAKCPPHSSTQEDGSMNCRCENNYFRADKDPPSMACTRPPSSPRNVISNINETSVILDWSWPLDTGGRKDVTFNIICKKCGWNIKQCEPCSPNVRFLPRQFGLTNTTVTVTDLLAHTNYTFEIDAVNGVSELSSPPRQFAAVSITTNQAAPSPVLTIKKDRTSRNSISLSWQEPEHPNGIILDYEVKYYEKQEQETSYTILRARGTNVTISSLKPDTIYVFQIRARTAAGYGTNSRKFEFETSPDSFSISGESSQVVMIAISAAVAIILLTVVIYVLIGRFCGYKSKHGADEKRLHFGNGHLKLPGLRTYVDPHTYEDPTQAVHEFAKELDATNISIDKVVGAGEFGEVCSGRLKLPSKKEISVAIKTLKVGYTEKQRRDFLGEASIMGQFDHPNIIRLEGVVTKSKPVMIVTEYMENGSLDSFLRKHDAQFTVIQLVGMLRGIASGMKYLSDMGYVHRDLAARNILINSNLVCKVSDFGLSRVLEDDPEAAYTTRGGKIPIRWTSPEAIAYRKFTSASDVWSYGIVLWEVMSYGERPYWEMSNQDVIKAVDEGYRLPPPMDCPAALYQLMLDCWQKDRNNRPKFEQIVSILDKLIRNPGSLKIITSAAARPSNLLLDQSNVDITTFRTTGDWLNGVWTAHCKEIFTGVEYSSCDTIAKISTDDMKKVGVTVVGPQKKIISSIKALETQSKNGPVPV
Nature of the test: Inhibition of recombinant human N-terminal GST-His6-fused ephA3 expressed in Sf9 insect cells at 10 uM using poly (Glu, Tyr) 4:1 as substrate after 60 mins in presence of [gamma-33P]-ATP by microplate scintillation counting method relative to control.

The target in test [3] is T3, 3-phosphoinositide-dependent protein kinase 1 (Homo sapiens) (UniProt O15530).
T3 sequence (whole entry): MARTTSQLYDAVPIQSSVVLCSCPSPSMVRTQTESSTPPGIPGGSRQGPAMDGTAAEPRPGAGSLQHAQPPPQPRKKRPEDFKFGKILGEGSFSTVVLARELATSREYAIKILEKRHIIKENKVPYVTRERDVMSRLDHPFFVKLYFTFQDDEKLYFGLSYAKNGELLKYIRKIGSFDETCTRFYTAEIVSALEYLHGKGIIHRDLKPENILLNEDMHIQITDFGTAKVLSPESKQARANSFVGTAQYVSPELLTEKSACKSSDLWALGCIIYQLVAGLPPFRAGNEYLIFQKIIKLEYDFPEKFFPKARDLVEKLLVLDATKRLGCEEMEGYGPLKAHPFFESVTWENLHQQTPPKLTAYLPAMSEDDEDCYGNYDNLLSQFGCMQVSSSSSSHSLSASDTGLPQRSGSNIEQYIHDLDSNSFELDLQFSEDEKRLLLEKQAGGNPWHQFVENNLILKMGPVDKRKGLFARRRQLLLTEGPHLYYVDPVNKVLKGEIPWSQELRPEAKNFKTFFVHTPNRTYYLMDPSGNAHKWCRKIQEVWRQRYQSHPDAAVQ
Nature of the test: Inhibition of recombinant human N-terminal His6-fused pdk1 expressed in Sf9 insect cells at 10 uM using tetra (LRRWSLG) as substrate after 60 mins in presence of [gamma-33P]-ATP by microplate scintillation counting method relative to control.

The test system of test [4] is MCF7. Nature of the test: Induction of cell death in human MCF7 cells assessed as appearance of sub-G0 hypodiploid nuclei at 1 uM after 24 hrs by propidium iodide staining-based flow cytometric method. It is filed as functional.
In test [5] the test system is MCF7. Nature of the test: Cytotoxicity against human MCF7 cells after 24 hrs by MTT assay. It is filed as functional, cell-based. Particulars: MCF7, 24 h.
Test [6] concerns the target Receptor tyrosine-protein kinase erbB-2 (Homo sapiens, UniProt P04626). Nature of the test: Inhibition of recombinant human N-terminal GST-His6-fused erbB2 expressed in Sf9 insect cells using poly (Glu, Tyr) 4:1 as substrate after 60 mins in presence of [gamma-33P]-ATP by microplate scintillation counting method.
The target in test [7] is T1, Receptor tyrosine-protein kinase erbB-4. Nature of the test: Inhibition of recombinant human N-terminal GST-His6-fused erbB4 expressed in Sf9 insect cells using poly (Glu, Tyr) 4:1 as substrate after 60 mins in presence of [gamma-33P]-ATP by microplate scintillation counting method.
In test [8] the test system is MCF7. Nature of the test: Cell cycle arrest in human MCF7 cells assessed as accumulation at G2/M phase at 1 uM after 24 hrs by propidium iodide staining-based flow cytometric method. It is filed as functional. In general terms: In flow cytometry, cells or beads pass a laser one at a time.

Receptor tyrosine-protein kinase erbB-2, sequence (P04626 whole entry, the tested form may be a part): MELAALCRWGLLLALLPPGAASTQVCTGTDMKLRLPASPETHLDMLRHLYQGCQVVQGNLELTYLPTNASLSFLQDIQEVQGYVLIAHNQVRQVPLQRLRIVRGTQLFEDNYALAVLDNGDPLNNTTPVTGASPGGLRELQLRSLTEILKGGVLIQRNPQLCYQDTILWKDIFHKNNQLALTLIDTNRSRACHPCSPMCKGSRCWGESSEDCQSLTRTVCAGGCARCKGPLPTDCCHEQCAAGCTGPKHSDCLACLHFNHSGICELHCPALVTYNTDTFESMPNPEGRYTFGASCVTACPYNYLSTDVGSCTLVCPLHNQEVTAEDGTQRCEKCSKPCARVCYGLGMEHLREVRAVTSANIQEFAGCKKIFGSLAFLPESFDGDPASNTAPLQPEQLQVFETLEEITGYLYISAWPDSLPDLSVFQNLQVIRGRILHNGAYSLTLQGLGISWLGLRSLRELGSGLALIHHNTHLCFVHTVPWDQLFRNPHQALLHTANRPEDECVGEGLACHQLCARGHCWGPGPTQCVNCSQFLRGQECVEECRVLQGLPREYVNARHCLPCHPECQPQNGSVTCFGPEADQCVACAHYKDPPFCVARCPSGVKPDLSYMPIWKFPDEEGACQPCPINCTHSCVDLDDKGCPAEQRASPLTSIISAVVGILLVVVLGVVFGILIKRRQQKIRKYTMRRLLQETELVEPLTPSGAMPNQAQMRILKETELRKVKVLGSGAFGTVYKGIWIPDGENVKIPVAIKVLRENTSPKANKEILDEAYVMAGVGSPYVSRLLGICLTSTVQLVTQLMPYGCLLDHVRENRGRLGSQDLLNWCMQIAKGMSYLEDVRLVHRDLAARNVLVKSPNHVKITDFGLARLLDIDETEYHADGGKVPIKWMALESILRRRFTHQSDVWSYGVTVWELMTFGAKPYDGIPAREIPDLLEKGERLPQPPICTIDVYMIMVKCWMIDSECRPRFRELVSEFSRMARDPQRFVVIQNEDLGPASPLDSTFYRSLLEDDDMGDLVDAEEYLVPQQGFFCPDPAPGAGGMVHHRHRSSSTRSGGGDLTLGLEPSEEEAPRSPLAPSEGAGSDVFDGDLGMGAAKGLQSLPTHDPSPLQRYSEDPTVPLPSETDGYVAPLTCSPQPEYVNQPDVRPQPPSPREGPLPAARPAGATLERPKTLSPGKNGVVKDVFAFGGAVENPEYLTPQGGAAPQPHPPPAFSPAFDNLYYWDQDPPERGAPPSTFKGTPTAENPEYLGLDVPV
T1 sequence (Q15303 whole entry, the tested form may be a part): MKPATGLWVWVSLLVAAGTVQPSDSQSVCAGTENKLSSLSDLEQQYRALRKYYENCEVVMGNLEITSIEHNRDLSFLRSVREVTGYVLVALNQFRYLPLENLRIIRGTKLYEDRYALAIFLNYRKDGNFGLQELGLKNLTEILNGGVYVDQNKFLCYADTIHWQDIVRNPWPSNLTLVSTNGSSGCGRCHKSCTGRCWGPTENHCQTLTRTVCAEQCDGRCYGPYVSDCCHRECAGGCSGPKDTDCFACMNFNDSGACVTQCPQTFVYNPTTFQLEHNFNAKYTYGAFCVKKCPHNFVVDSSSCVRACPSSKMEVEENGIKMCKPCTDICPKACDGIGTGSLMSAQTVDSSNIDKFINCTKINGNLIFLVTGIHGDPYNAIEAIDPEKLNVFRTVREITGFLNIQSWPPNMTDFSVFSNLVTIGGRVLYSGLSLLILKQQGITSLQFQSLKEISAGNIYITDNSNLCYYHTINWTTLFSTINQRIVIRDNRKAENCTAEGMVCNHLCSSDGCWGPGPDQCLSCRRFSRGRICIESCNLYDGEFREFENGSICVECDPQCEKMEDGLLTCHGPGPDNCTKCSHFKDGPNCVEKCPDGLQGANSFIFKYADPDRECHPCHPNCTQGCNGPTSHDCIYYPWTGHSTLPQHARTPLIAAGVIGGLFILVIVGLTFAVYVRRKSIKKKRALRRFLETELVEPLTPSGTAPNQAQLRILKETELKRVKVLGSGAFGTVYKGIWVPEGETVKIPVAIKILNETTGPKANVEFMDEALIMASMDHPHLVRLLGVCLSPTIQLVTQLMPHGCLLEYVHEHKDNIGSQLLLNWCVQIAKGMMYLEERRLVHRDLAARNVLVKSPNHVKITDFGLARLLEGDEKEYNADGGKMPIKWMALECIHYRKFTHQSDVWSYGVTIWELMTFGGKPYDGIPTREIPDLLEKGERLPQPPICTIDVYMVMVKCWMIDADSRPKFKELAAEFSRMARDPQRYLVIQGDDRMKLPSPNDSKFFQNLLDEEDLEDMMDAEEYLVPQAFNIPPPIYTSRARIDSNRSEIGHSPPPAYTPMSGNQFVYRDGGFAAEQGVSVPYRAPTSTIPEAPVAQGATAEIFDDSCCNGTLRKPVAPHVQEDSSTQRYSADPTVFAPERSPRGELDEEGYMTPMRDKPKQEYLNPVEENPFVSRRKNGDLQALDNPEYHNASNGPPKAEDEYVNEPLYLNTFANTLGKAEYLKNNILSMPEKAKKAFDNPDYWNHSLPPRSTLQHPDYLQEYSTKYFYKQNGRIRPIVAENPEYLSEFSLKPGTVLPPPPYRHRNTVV

As to `COc1ncc(-c2cc(C(F)(F)F)cc(S(=O)(=O)NCCc3cccc(F)c3)c2)c(OC)n1`, in test [1], the inhibition was 10.3%.
Take `COc1cc(-c2cc(C(F)(F)F)cc(S(=O)(=O)NCCc3cccc(F)c3)c2)c(OC)nn1`: the inhibition in test [1] worked out at 14.9%.
Turning to `COC(=O)c1ccc(-c2cc(C(F)(F)F)cc(S(=O)(=O)NCCc3cccc(F)c3)c2)cn1`, the inhibition in test [1] is 15.8%.
As for `Cc1noc(C)c1-c1cc(C(F)(F)F)cc(S(=O)(=O)NCCc2cccc(F)c2)c1`, the inhibition in test [1] stood at 9%.
As for `O=S(=O)(NCCc1cccc(F)c1)c1cc(-c2cccc3c2oc2ccccc23)cc(C(F)(F)F)c1`, the inhibition was 50.5% in test [1], 11.1% in test [2] and 2.4% in test [3].
On to `O=S(=O)(NCCc1cccc(F)c1)c1cc(-c2ccc(-c3cccs3)s2)cc(C(F)(F)F)c1`, for which the outcome in the test on MCF7 [4] was inactive. For the same molecule, the inhibition in test [1] is 57%; in test [2] it was 22%; in test [3], 40.3%. The figures for the IC50 (in the test with MCF7 [5]; in test [6]; in test [7]) were 9.09 µM, 31.5 µM and 8.05 µM, respectively. In the test on MCF7 [8], the result was Active.
Regarding `O=S(=O)(NCCc1cccc(F)c1)c1cc(-c2cccc(S(=O)(=O)N3CCCC3)c2)cc(C(F)(F)F)c1`, the values for the inhibition in test [1] and in test [3] were 34.3% and 5.7%, respectively.
Consider `O=S(=O)(NCCc1cccc(F)c1)c1cc(-c2cccnc2)cc(C(F)(F)F)c1`, for which the inhibition was 15.7% in test [1] and 4.2% in test [2].
For the molecule `COCCc1ccc(OCc2ccc(-c3cc(C(F)(F)F)cc(S(=O)(=O)NCCc4cccc(F)c4)c3)cc2)cc1`, the values for the inhibition in test [1], in test [2] and in test [3] were 67.7%, 33.1% and 42.8%, respectively. The half-maximal inhibitory concentration (IC50) in the test with MCF7 [5] stood at 45.1 µM; in test [6], 25.4 µM; in test [7], 6.43 µM.
For `O=S(=O)(NCCc1cccc(F)c1)c1cc(-c2ccc(COc3cccc4ccccc34)cc2)cc(C(F)(F)F)c1`, the inhibition in test [1] amounted to 49%; in test [2] it was 30.1%; in test [3], 35.6%.
With `O=S(=O)(NCCc1cccc(F)c1)c1cc(-c2cccc3c2Sc2ccccc2S3)cc(C(F)(F)F)c1`, the inhibition is 57.9% in test [1], 32.8% in test [2] and 35% in test [3]. For the same molecule, the IC50 in the test on MCF7 [5] was 22.8 µM; in test [6], 10.4 µM; in test [7] it was 6.4 µM.
For `O=S(=O)(NCCc1cccc(F)c1)c1cc(-c2ccc(F)nc2)cc(C(F)(F)F)c1`, the inhibition in test [1] was determined as 7.5%; in test [3] it was 10.3%.
Consider `O=S(=O)(NCCc1cccc(F)c1)c1cc(-c2ccnc(F)c2)cc(C(F)(F)F)c1`, for which the inhibition in test [1] worked out at 18.4%; in test [2], 9.1%.
Turning to `O=S(=O)(NCCc1cccc(F)c1)c1cc(-c2ccccc2COc2cccc(C(F)(F)F)c2)cc(C(F)(F)F)c1`, the inhibition in test [1] is 63.1%; in test [2], 30.4%; in test [3], 52.7%. Further, the IC50 in the test on MCF7 [5] was 44.2 µM; in test [6] it was 9.71 µM; in test [7] it was 4.41 µM.
As to `COc1ccc(F)cc1-c1cc(C(F)(F)F)cc(S(=O)(=O)NCCc2cccc(F)c2)c1`, the inhibition in test [1] came out at 19.1%; in test [3], 40.5%.
As for `O=Cc1ccc(-c2cc(C(F)(F)F)cc(S(=O)(=O)NCCc3cccc(F)c3)c2)s1`, the inhibition in test [1] turned out to be 22.2%; in test [2] it was 7.8%; in test [3], 5.2%.
Take `COc1cc(-c2cc(C(F)(F)F)cc(S(=O)(=O)NCCc3cccc(F)c3)c2)ccc1F`: the inhibition in test [1] is 12.8%; in test [3], 27.6%.
Consider `O=S(=O)(NCCc1cccc(F)c1)c1cc(-c2cc3ccccc3[nH]2)cc(C(F)(F)F)c1`, for which the inhibition in test [1] came to 4.6%; in test [2], 22.7%; in test [3], 52.2%.
As to `O=S(=O)(NCCc1cccc(F)c1)c1cc(-c2ccc(COc3cccc(C(F)(F)F)c3)cc2)cc(C(F)(F)F)c1`, the inhibition was 67.9% in test [1], 28.5% in test [2] and 50.8% in test [3]. Also, the IC50 was found to be 28.2 µM in the test with MCF7 [5], 18 µM in test [6] and 5.06 µM in test [7].
